Legend:
Assay in all cases: CellTiter-Glo cytotoxicity, cancer cell line panel
Assay type in all cases: cell-based
769-P = conditions: Homo sapiens, Renal cell carcinoma
Method: (§1) The objective of this study is to investigate potential cell killing effect of Compounds 1-15 on 3 cancer cell lines. 50% inhibition concentration (IC50) was determined for these compounds in various cancer cell lines using CellTiter-Glo™ luminescent cell viability assay at different compound concentrations. Each cell line (e.g., NCI-H209; NCI-H69; and SW1271) was treated with Compounds 1-15 and culture medium contains 0.2% [v/v] DMSO vehicle control. All the cells were cultured in the media supplemented with 10-20% fetal bovine serum at 37° C., 5% CO2 and 95% humidity.
(§2) The objective of this study is to investigate the effect of Compound 1 on cytotoxicity against 61 different types of cancer cell lines. IC50 were values were obtained using CellTiter-Glo™ as described above. Each cell line shown in Table 3 was treated with Compound 1, a standard chemotherapy drug, cisplatin, as reference control and culture medium contains 0.2% [v/v] DMSO vehicle control. All cancer cell lines were cultured in media supplemented with 10-20% fetal bovine serum at 37° C., 5% CO2 and 95% humidity.

786-O = conditions: Homo sapiens, 786-0, Renal cell carcinoma
Method: as §1, §2

A498 = conditions: Homo sapiens; A498, Renal cell carcinoma
Method: as §1, §2

A549 = conditions: Homo sapiens; A549, Lung adenocarcinoma
Method: as §1, §2

ACHN = conditions: Homo sapiens, Papillary renal cell carcinoma
Method: as §1, §2

Caki-1 = conditions: Homo sapiens; Caki-1, Clear cell renal cell carcinoma
Method: as §1, §2

Caki-2 = conditions: Homo sapiens; Caki-2, Papillary renal cell carcinoma
Method: as §1, §2

DLD-1 = conditions: Homo sapiens; DLD-1, Colon adenocarcinoma
Method: as §1, §2

HCT 116 = conditions: Homo sapiens; HCT 116, Colon carcinoma
Method: as §1, §2

HLE = conditions: Homo sapiens, Hepatocellular carcinoma
Method: as §1, §2

HLF = conditions: Hepatocellular carcinoma
Method: as §1, §2

HUH-1 = conditions: Homo sapiens; HUH-1, Hepatocellular carcinoma
Method: as §1, §2

HUH-6 CLONE5 = conditions: HUH-6 CLONE5, Hepatoblastoma carcinoma
Method: as §1, §2

HUH-7 = conditions: Homo sapiens; HUH-7, Hepatocellular carcinoma
Method: as §1, §2

Hep G2/C3A = conditions: HepG2/C3A, Hepatoblastoma carcinoma
Method: as §1, §2

Hep G2 = conditions: Homo sapiens, HepG2; Hep G2, Hepatoblastoma carcinoma
Method: as §1, §2

HuCCT1 = conditions: Homo sapiens, HuCCT-1; HuCCT1, Intrahepatic cholangiocarcinoma
Method: as §1, §2

JHH-6 = conditions: JHH-6, Hepatocellular carcinoma
Method: as §1, §2

Li-7 = conditions: Li-7, Hepatocellular carcinoma
Method: as §1, §2

MHCC97-H = conditions: Homo sapiens, MHCC97H, Hepatocellular carcinoma
Method: as §1, §2

NCI-H1975 = conditions: Homo sapiens; NCI-H1975, Lung adenocarcinoma
Method: as §1, §2

NOZ = conditions: Gallbladder carcinoma
Method: as §1, §2

OCUG-1 = conditions: OCUG-1, Gallbladder carcinoma
Method: as §1, §2

OS-RC-2 = conditions: Homo sapiens; OS-RC-2, Renal cell carcinoma
Method: as §1, §2

OVCAR-3 = conditions: Homo sapiens; OVCAR-3, High grade ovarian serous adenocarcinoma
Method: as §1, §2

OZ = conditions: Intrahepatic cholangiocarcinoma
Method: as §1, §2

PLC/PRF/5 = conditions: Homo sapiens; PLC/PRF/5, Hepatocellular carcinoma
Method: as §1, §2

RBE = conditions: Intrahepatic cholangiocarcinoma
Method: as §1, §2

SNU-387 = conditions: Homo sapiens; SNU-387, Hepatocellular carcinoma
Method: as §1, §2

SNU-449 = conditions: Homo sapiens; SNU-449, Hepatocellular carcinoma
Method: as §1, §2

SNU-475 = conditions: Homo sapiens; SNU-475, Hepatocellular carcinoma
Method: as §1, §2

SNU-739 = conditions: SNU-739, Hepatocellular carcinoma
Method: as §1, §2

SW 156 = conditions: SW 156, Renal cell carcinoma
Method: as §1, §2

Saos-2 = conditions: Homo sapiens; Saos-2, Osteosarcoma
Method: as §1, §2

U-87 MG = conditions: Homo sapiens, Glioblastoma
Method: as §1, §2

UO.31 = conditions: Homo sapiens; UO.31, Renal cell carcinoma
Method: as §1, §2

N=C(N)c1ccc(OCCCCCOc2ccc(C(=N)N)nc2)cc1 [Compound 1, 5-(5-(4-carbamimidoylphenoxy)pentyloxy)picolinimidamide]
IC50 (769-P): 1.63 µM | IC50 (786-O): 9.63 µM | IC50 (A498): 1.17 µM | IC50 (A549): 0.37 µM | IC50 (ACHN): 4.64 µM | IC50 (Caki-1): 3.42 µM | IC50 (Caki-2): 4.18 µM | IC50 (DLD-1): 3.11 µM | IC50 (HCT 116): 2.67 µM | IC50 (HLE): 0.59 µM | IC50 (HLF): 2.04 µM | IC50 (HUH-1): 3.2 µM | IC50 (HUH-6 CLONE5): 0.86 µM | IC50 (HUH-7): 0.97 µM | IC50 (Hep G2/C3A): 0.23 µM | IC50 (Hep G2): 0.34 µM | IC50 (HuCCT1): 8.01 µM | IC50 (JHH-6): 0.38 µM | IC50 (Li-7): 0.76 µM | IC50 (MHCC97-H): 8.31 µM | IC50 (NCI-H1975): 2.66 µM | IC50 (NOZ): 2.54 µM | IC50 (OCUG-1): 2.89 µM | IC50 (OS-RC-2): 1.7 µM | IC50 (OVCAR-3): 1.96 µM | IC50 (OZ): 9.39 µM | IC50 (PLC/PRF/5): 4.13 µM | IC50 (RBE): 1.4 µM | IC50 (SNU-387): 4 µM | IC50 (SNU-449): 1.57 µM | IC50 (SNU-475): 1.25 µM | IC50 (SNU-739): 2.23 µM | IC50 (SW 156): 6.28 µM | IC50 (Saos-2): 2.39 µM | IC50 (U-87 MG): 5.58 µM | IC50 (UO.31): 3.47 µM
